Type in all cases: functional
Experiment [1] in a line: Antioxidant activity assessed as reduction in beta-carotene/linoleic acid bleaching activity at 0.5 mg/ml after 2 hrs by spectrophotometric method (reference value: 1 to 8 %). Details: scale not given: the % may be the effect or the level left.
A short description of experiment [2]: Antioxidant activity assessed as ABTS radical scavenging activity at 0.5 mg/ml incubated for 2 hrs in dark by spectrophotometric analysis (reference value: 1 to 9 %).
The nature of experiment [3]: Antioxidant activity assessed as ABTS radical scavenging activity at 2.5 mg/ml incubated for 2 hrs in dark by spectrophotometric analysis (reference value: 1 to 9%).
The nature of experiment [4]: Antioxidant activity assessed as reduction in beta-carotene/linoleic acid bleaching activity at 3 mg/ml after 2 hrs by spectrophotometric method (reference value: 1 to 8%). Details: scale not given: the % may be the effect or the level left.
Experiment [5] in a line: Antioxidant activity assessed as DPPH free radical scavenging activity at 3 mg/ml incubated for 20 mins in dark (reference value: 1 to 9%). In general terms: Loss of DPPH colour is used to gauge radical scavenging.
Experiment [6] is described as follows: Antioxidant activity assessed as DPPH free radical scavenging activity at 2.5 mg/ml incubated for 20 mins in dark (reference value: 1 to 9%).
A short description of experiment [7]: Antioxidant activity assessed as ABTS radical scavenging activity at 2 mg/ml incubated for 2 hrs in dark by spectrophotometric analysis (reference value: 1 to 9%).
Experiment [8] in a line: Antioxidant activity assessed as DPPH free radical scavenging activity at 2 mg/ml incubated for 20 mins in dark (reference value: 1 to 9%).
Experiment [9] can be described thus: Antioxidant activity assessed as ABTS radical scavenging activity at 1 mg/ml incubated for 2 hrs in dark by spectrophotometric analysis (reference value: 1 to 9%).
Experiment [10] can be described thus: Antioxidant activity assessed as reduction in beta-carotene/linoleic acid bleaching activity at 2.5 mg/ml after 2 hrs by spectrophotometric method (reference value: 1 to 8%). Details: scale not given: the % may be the effect or the level left.
A short description of experiment [11]: Antioxidant activity assessed as DPPH free radical scavenging activity incubated for 20 mins in dark.
Experiment [12] is described as follows: Antioxidant activity assessed as ABTS radical scavenging activity incubated for 2 hrs in dark by spectrophotometric analysis.
Experiment [13] can be described thus: Antioxidant activity assessed as reduction in beta-carotene/linoleic acid bleaching activity at 2 mg/ml after 2 hrs by spectrophotometric method (reference value: 1 to 8%). Details: scale not given: the % may be the effect or the level left.
The nature of experiment [14]: Antioxidant activity assessed as reduction in beta-carotene/linoleic acid bleaching activity after 2 hrs by spectrophotometric method.
Experiment [15] in a line: Antioxidant activity assessed as DPPH free radical scavenging activity at 0.5 mg/ml incubated for 20 mins in dark (reference value: 1 to 9 %).
Experiment [16] can be described thus: Antioxidant activity assessed as reduction in beta-carotene/linoleic acid bleaching activity at 1 mg/ml after 2 hrs by spectrophotometric method (reference value: 1 to 8%). Details: scale not given: the % may be the effect or the level left.
A short description of experiment [17]: Antioxidant activity assessed as ABTS radical scavenging activity at 3 mg/ml incubated for 2 hrs in dark by spectrophotometric analysis (reference value: 1 to 9%).
A short description of experiment [18]: Antioxidant activity assessed as DPPH free radical scavenging activity at 1 mg/ml incubated for 20 mins in dark (reference value: 1 to 9%).

Values after ≈ are worked out from the molar mass of the structure shown.

With `CC(C)[C@@H]1CC[C@@H](C)C[C@@]12N(C)C(=O)[C@@H]1[C@H]3C(=O)N(C)C(=O)[C@H]3ON12`, the Activity in experiment [1] stood at 36.5%; in experiment [2], 39.2%; in experiment [3], 70.3%; in experiment [4], 67.5%; in experiment [5], 64%; in experiment [6] it was 55.8%. For the same molecule, the Activity in experiment [7] was 59.9%; in experiment [8], 53.4%; in experiment [9], 41.5%; in experiment [10], 57.2%; in [11], “Dose-dependent effect”; in experiment [13], 49.7%. Besides, the Activity in [15] was determined as 18.2%; in [16] it was 47.7%; in experiment [17], 75.3%; in experiment [18], 43.1%. Moreover, the IC50 amounted to 1650 µg/mL (≈ 4.72 mM) in [11], 1400 µg/mL (≈ 4.01 mM) in [12] and 2160 µg/mL (≈ 6.18 mM) in [14].
Consider `CC(C)[C@@H]1CC[C@@H](C)C[C@@]12N(C)C(=O)[C@@H]1[C@H]3C(=O)N(c4ccc(Cl)cc4)C(=O)[C@H]3ON12`, for which the Activity in experiment [1] is 47.5%; in experiment [2], 29.7%; in experiment [3], 60.1%; in experiment [4] it was 73.2%; in experiment [5] it was 47.2 to 63.9%; in experiment [6], 53.1%. For the same molecule, the Activity in experiment [7] is 49.4%; in [8], 48.2%; in experiment [9], 39.9%; in experiment [10], 61.3%; in experiment [11], “Dose-dependent effect”; in experiment [13], 56.4%. Also, the Activity in experiment [15] came to 18.1%; in [16], 53.7%; in experiment [17] it was 74%; in experiment [18], 31.7%. Further, the IC50 was 2150 µg/mL (≈ 4.82 mM) in experiment [11], 2000 µg/mL (≈ 4.48 mM) in experiment [12] and 710 µg/mL (≈ 1.59 mM) in [14].
For the molecule `Cc1cccc(N2C(=O)[C@H]3[C@H](ON4[C@@H]3C(=O)N(C)[C@@]43C[C@H](C)CC[C@H]3C(C)C)C2=O)c1`, the Activity was 25% in experiment [1]; 16.1% in experiment [2]; 47.7% in experiment [3]; 65.8% in [4]; 73.8% in experiment [5]; 57.5% in experiment [6]. Moreover, the Activity in experiment [7] was 35.3%; in experiment [8] it was 49.9%; in [9], 25.8%; in experiment [10], 57.6%; in experiment [11], “Dose-dependent effect”; in experiment [13], 43.6%. Besides, the Activity in experiment [15] turned out to be 26.8%; in experiment [16], 39%; in experiment [17], 52.4%; in experiment [18] it was 38.7%. Also, the IC50 in experiment [11] was 1880 µg/mL (≈ 4.42 mM); in experiment [12] it was 2700 µg/mL (≈ 6.35 mM); in [14], 1930 µg/mL (≈ 4.54 mM).
As to `CC(C)[C@@H]1CC[C@@H](C)C[C@@]12N(C)C(=O)[C@@H]1[C@H]3C(=O)N(c4ccccc4)C(=O)[C@H]3ON12`, the Activity in experiment [1] was 28.7%; in [2] it was 14.7%; in [3] it was 58.6%; in [4] it was 58.9%; in experiment [5], 80.7%; in experiment [6] it was 76.2%. For the same molecule, the Activity is 41% in [7]; 74.2% in experiment [8]; 29.7% in experiment [9]; 53.1% in experiment [10]; “Dose-dependent effect” in experiment [11]; 48.2% in experiment [13]. Also, the Activity in experiment [15] came out at 21.6%; in experiment [16], 35.4%; in experiment [17], 73.5%; in experiment [18] it was 54.9%. The IC50 was determined as 900 µg/mL (≈ 2.19 mM) in experiment [11], 2250 µg/mL (≈ 5.47 mM) in [12] and 2310 µg/mL (≈ 5.61 mM) in [14].
For `Cc1cc(C(C)(C)C)c(O)c(C(C)(C)C)c1` [BUTYLATED HYDROXYTOLUENE], the Activity in [1] turned out to be 39.6%; in experiment [4], 79.2%; in [5], 85.8%; in [6], 85.2%; in experiment [8], 84.8%; in experiment [10] it was 75.1%. Besides, the Activity in [13] was found to be 65.9%; in experiment [15] it was 33.8%; in experiment [16], 52.3%; in experiment [18], 69.2%. For the same molecule, the IC50 in [11] worked out at 720 µg/mL (≈ 3.27 mM); in experiment [14], 930 µg/mL (≈ 4.22 mM).
With `CC(C)[C@@H]1CC[C@@H](C)C[C@@]12N(C)C(=O)[C@@H]1[C@H]3C(=O)N(c4ccc5ccccc5c4)C(=O)[C@H]3ON12`, the Activity in [1] is 24.5%; in experiment [2], 25.4%; in experiment [3] it was 47.9%; in [4], 57.4%; in experiment [5], 50.9%; in experiment [6], 39.5%. Also, the Activity was 43.6% in experiment [7]; 35% in experiment [8]; 33.2% in experiment [9]; 45.1% in experiment [10]; “Dose-dependent effect” in experiment [11]; 36.5% in experiment [13]. Moreover, the Activity in experiment [15] was found to be 13.8%; in [16] it was 29.6%; in [17], 60.1%; in [18], 27.6%. Besides, the IC50 came to 2920 µg/mL (≈ 6.33 mM) in experiment [11], 2520 µg/mL (≈ 5.46 mM) in [12] and 2680 µg/mL (≈ 5.81 mM) in experiment [14].
As for `Cc1c(C)c2c(c(C)c1O)CCC(C)(C(=O)O)O2` (stereo unspecified) [TROLOX], the Activity worked out at 82.1% in [2]; 90.8% in experiment [3]; 89.2% in experiment [7]; 85.5% in experiment [9]; 91.8% in experiment [17]. In addition, the 50% inhibitory concentration (IC50) in [12] was found to be 300 µg/mL (≈ 1.2 mM).
Consider `CC(C)[C@@H]1CC[C@@H](C)C[C@@]12N(C)C(=O)[C@@H]1[C@H]3C(=O)NC(=O)[C@H]3ON12`, for which the Activity was 25.9% in experiment [1]; 23.5% in [2]; 70% in experiment [3]; 47.2% in [4]; 80.3% in [5]; 67.2% in [6]. Further, the Activity in [7] was 57.2%; in experiment [8], 58.7%; in experiment [9], 42.6%; in experiment [10], 38%; in experiment [11] it was “Dose-dependent effect”; in [13] it was 37.1%. In addition, the Activity in [15] stood at 21.6%; in [16], 35.6%; in experiment [17], 72%; in [18], 39.3%. Besides, the half-inhibitory concentration (IC50) in experiment [11] was determined as 1550 µg/mL (≈ 4.62 mM); in experiment [12], 1500 µg/mL (≈ 4.47 mM).

By IC50 is commonly meant the midpoint of a concentration-inhibition curve.

The record behind these values is ChEMBL document CHEMBL4028834, “Stereoselective synthesis of enantiopure N-substituted pyrrolidin-2,5-dione derivatives by 1,3-dipolar cycloaddition and assessment of their in vitro antioxidant and antibacterial activities” (Bioorg Med Chem Lett, 2017).
